Converted amounts (≈) assume the structure as drawn. “And” between values parts separate entries of the source, which are not always exact repeats. Equal entries are not always repeated. Where two headings read alike, the source gives them in different places.
Key:
[1] = system: Trypanosoma cruzi Tulahuen LacZ (clone C4); assay: Trypanosoma cruzi growth on MRC-5 cells (CPRG); conditions: MRC5, 168 h, read-out: IC50 Trypanosoma cruzi
Description: In vitro biology: Minimum inhibitory concentration (MIC) assays on parasites Synthesized compounds were tested against different parasite cell lines (T. brucei, T. cruzi, and P. falciparum K1) for the MIC determination.
Trypanosoma cruzi cells were maintained on MRC-5 human lung fibroblast cells. The assay was performed with 5% CO2 at 37 °C in a 96-well microtiter plate. Each well contains 10 µl compound dilution and 190 µl parasite/MRC-5 cell inoculum (10:1 parasites : cells). Parasite burdens were evaluated with addition of substrate CPRG (50 µl/well stock solution with 15.2mg CPRG + 250 µl Nonidet in 100 ml PBS). After 4h incubation, the absorbance change was measured spectrophotometrically at 540 nm at 37 °C. The res ults were presented as % growth, compared with non-infected cells (0% growth) and untreated-infected controls (100 % growth) after 7-day incubation, and the

P. falciparum K1 = assay: Plasmodium falciparum K1 growth (Malstat); assay type: cell-based; conditions: reference compound, 72 h
Description: acceptor at a range of concentrations.
2.1.3. IC50 determination
Compounds were pre-incubated
IC50 is calculated. […] The […]
of PES (phenazine ethosulfate, 0.1 mg/ml) and NBT (Nitro Blue Tetrazolium Grade III, 2 mg/ml) in a new plate. The absorbance change was measured at 655nm. The results were shown as % reduction in parasitemia, compared to control wells with no treatment.
3. Trypanosoma brucei sample has 7*104 parasites/ml in the suspension. Cultured for 3 days, the growth of the cells was assessed fluorimetrically with the addition of resazurin in a microtiter plate. The fluorescence intensity was measured after 24h at 37 °C with the excitation wavelength at 550nm and the emission wavelength at 590nm. The results were presented as % reduction in parasite growth, compared to reference wells with no treatment, followed by IC50 calculation. Suramine was used as the reference compound […]
A compound with IC50 higher than 5 µM is classified as the […]
subsequently evaluated in a secondary assay, with broader concentration range, additional references, and other species.
IC50 values are shown in Table S1, followed by semi-quantitative activity scores, and indications for specificity. […]

MtNDH-2 [2] = molecular target: T1, MtNDH-2 (Mycobacterium tuberculosis, UniProt P95160); assay: biochemical; design: species or system M. tuberculosis; conditions: MtNDH-2 IC50
T1 sequence (P95160 2-463, added parts left off): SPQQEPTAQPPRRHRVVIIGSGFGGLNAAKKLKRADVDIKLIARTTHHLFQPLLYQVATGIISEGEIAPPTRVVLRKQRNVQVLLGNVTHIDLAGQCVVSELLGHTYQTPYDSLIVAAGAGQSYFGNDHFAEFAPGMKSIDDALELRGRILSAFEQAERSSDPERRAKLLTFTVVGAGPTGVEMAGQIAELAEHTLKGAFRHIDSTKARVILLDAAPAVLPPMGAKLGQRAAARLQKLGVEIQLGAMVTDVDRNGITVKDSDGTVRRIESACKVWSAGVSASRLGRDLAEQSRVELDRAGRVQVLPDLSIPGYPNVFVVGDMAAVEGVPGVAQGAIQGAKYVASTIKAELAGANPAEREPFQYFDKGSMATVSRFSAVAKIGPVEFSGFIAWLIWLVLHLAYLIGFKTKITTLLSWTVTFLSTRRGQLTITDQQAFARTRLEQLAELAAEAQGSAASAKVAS

MsNDH-2 = MsNDH-2 (Mycolicibacterium smegmatis, UniProt A0QYD6); assay: Inhibition of MsNDH-2 (NADH oxidation with menadione, absorbance at 340 nm); assay type: biochemical, M. smegmatis
MsNDH-2, sequence (A0QYD6 1-457): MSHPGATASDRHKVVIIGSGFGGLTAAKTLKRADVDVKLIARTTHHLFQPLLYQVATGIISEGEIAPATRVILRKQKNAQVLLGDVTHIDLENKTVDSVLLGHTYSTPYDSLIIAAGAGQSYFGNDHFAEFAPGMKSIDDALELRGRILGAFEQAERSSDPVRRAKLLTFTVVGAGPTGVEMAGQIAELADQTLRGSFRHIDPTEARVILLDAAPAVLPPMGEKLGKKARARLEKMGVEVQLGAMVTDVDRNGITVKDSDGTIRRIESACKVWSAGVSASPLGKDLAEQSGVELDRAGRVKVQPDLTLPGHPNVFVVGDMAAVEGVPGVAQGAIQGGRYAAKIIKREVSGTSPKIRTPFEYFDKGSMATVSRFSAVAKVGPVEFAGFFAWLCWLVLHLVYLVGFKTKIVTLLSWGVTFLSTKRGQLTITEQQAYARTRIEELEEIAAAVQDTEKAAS

[3] = system: E. coli (ATCC 25922, wild-type); assay: MIC on ESKAPE pathogens, E. coli wild-type; assay type: cell-based; conditions: Escherichia coli, ATCC25922, read-out: MIC Ec WT
[4] = system: E. coli (ΔtolC efflux-defective mutant, isogenic to ATCC 25922); assay: microbe, parasite or virus in culture; assay type: cell-based; conditions: Escherichia coli, ATCC25922, read-out: MIC Ec ΔtolC
[5] = system: E. coli (D22, lpxC mutant, drug-hypersensitive); assay: microbe, parasite or virus in culture; assay type: cell-based; conditions: Escherichia coli, read-out: MIC Ec D22
[6] = system: P. aeruginosa (PAO1, wild-type); assay: MIC on ESKAPE pathogens, P. aeruginosa wild-type; assay type: cell-based; conditions: Pseudomonas aeruginosa, PAO1, read-out: MIC Pa WT
[7] = system: P. aeruginosa (PAO750 efflux-defective mutant, isogenic to PAO1); assay: microbe, parasite or virus in culture; assay type: cell-based; conditions: Pseudomonas aeruginosa, PAO1, read-out: MIC Pa efflux
[8] = system: A. baumannii (ATCC 19606, wild-type); assay: MIC on ESKAPE pathogens, A. baumannii; assay type: cell-based; conditions: Acinetobacter baumannii, ATCC19606; A. baumannii ATCC 19606, wild-type; read-out: MIC Ab WT
[9] = system: S. aureus (ATCC 29213, wild-type); assay: MIC on ESKAPE pathogens, S. aureus; assay type: cell-based; conditions: Staphylococcus aureus, ATCC29213
[10] = system: M. tuberculosis strain H37Rv (ATCC 25618); assay: MIC on M. tuberculosis by resazurin reduction microplate assay (REMA); assay type: cell-based; conditions: Mycobacterium tuberculosis, M. tuberculosis H37Rv, read-out: MIC Mtb
[11] = Cytotoxicity on the MRC-5 cell line (resazurin); assay type: cell-based; conditions: human, MRC-5SV2 cells, MRC-5SV2, 3 days
Procedure, shortened: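 MRC-5SV2 cells, about 10^4 per well in Earl's MEM with 5% FCSi, were exposed to compounds for 3 days. Viability read fluorimetrically with resazurin (ex 550, em 590 nm) as % reduction versus untreated wells, giving CC50.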

MtNDH-2 [12] = molecular target: T1, MtNDH-2; design: method as in PMID 24900541; conditions: reported earlier; cited from earlier work
[13] = system: K. pneumonia (ATCC 13833, wild-type); assay: MIC on ESKAPE pathogens, K. pneumoniae
[14] = system: Trypanosoma brucei brucei Squib 427; assay: Trypanosoma brucei growth (resazurin); assay type: cell-based; conditions: reference compound
Description: page 46: of PES (phenazine ethosulfate, 0.1 mg/ml) and NBT (Nitro Blue Tetrazolium Grade III, 2 mg/ml) in a new plate. The absorbance change was measured at 655nm. The results were shown as % reduction in parasitemia, compared to control wells with no treatment. […] A compound […] secondary screening. 3. Trypanosoma brucei sample has 7*104 parasites/ml in the suspension. Cultured for 3 days, the growth of the cells was assessed fluorimetrically with the addition of resazurin in a microtiter plate. The fluorescence intensity was measured after 24h at 37 °C with the excitation wavelength at 550nm and the emission wavelength at 590nm. The results were presented as % reduction in parasite growth, compared to reference wells with no treatment, followed by IC50 calculation. Suramine was used as the reference compound […] subsequently evaluated in a secondary assay, with broader concentration range, additional references, and other species. IC50 values are shown in Table S1, followed by semi-quantitative activity scores, and indications for specificity. […]

O=C(Cn1ccnc1[N+](=O)[O-])NCc1ccccc1 [Benznidazole]
IC50 [1]: 1700 nM

CCN(CC)CCCC(C)Nc1ccnc2cc(Cl)ccc12 (stereo not drawn) [Chloroquine]
IC50 (P. falciparum K1): 210 nM

Cc1cccc(-c2cc(Nc3ccc4nc(-c5ccc(F)cc5)cc(N)c4c3)nc(N)n2)c1 [Compound 1, N^6-(2-Amino-6-m-tolylpyrimidin-4-yl)-2-(4-fluorophenyl)quinoline-4,6-diamine, reference compound]
IC50 (MtNDH-2 [2]): 26 nM and 22.9 nM | IC50 (MsNDH-2; 95% confidence interval in parentheses, 50 nM enzyme, 50 μM menadione, >100: no significant inhibition at 100 μM): 1600 nM | IC50 (MsNDH-2; same IC50 given in μg/mL to assist comparisons with MICs): 1600 nM | MIC [3]: > 128 µg/mL | MIC [4]: 8 µg/mL (≈ 18.3 µM) | MIC [5]: 4 µg/mL (≈ 9.16 µM) | MIC [6]: > 128 µg/mL | MIC [7]: 128 µg/mL (≈ 293 µM) | MIC [8]: 64 µg/mL (≈ 147 µM) | MIC [9]: 1 µg/mL (≈ 2.29 µM) | MIC [10]: 2.6 µg/mL (≈ 5.96 µM) | IC50 at 3 days ([11]; resazurin): 1300 nM | IC50 at 3 days ([11]; value in parentheses): 0.6 µg/mL | IC50 (MtNDH-2 [12]): 96 nM | MIC Kp WT [13]: >128 µg/mL

Cc1ccc(C(=O)Nc2ccc(S(=O)(=O)O)c3cc(S(=O)(=O)O)cc(S(=O)(=O)O)c23)cc1NC(=O)c1cccc(NC(=O)Nc2cccc(C(=O)Nc3cc(C(=O)Nc4ccc(S(=O)(=O)O)c5cc(S(=O)(=O)O)cc(S(=O)(=O)O)c45)ccc3C)c2)c1 [Suramine]
IC50 [14]: 40 nM

From paper PMC8922281, “Synthesis and In Vitro Biological Evaluation of Quinolinyl Pyrimidines Targeting Type II NADH-Dehydrogenase (NDH-2)” (ACS Infectious Diseases, 2022)
